In patent US20130053350A1, “PPAR-SPARING THIAZOLIDINEDIONES AND COMBINATIONS FOR THE TREATMENT OF NEURODEGENERATIVE DISEASES” (Metabolic Solutions Development Company, LLC, priority 2009, published 2013):

Key:
[1] = test system: PGC-1α; experiment: Synergy with norepinephrine on expression of PGC-1α mRNA in precursor BAT cells (quantitative PCR); type: cell-based; conditions: 3 μM compound for seven days, then 1 μM norepinephrine for 2 hours, vs control without compound
Method: Another example of the ability of augmented signaling between cyclic nucleotides and compounds of Formula I is shown by the effect on expression of PGC-1α, a known regulator of mitochondrial biogenesis. Increased numbers of mitochondria are predictive of utility for the reduction of body weight.
Precursor BAT cells were isolated as described above and treated with or without 3 μM compounds: 1.] Compound X: 5-(4-(2-(5-ethylpyridin-2-yl)-2-oxoethoxy)benzyl)-1,3-thiazolidine-2,4-dione; 2.] Compound Y: 5-(4-(2R)-2-(5-ethylpyridin-2-yl)-2-hydroxyethoxyy)benzyl)-1,3-thiazolidine-2,4-dione; or 3.] Compound Z: 5-(4-(2-(3-methoxyphenyl)-2-oxoethoxy)benzyl)-1,3-thiazolidine-2,4-dione for seven days followed by treatment with 1 μM norepinephrine for 2 hours. Total RNA was isolated from the cells and the RNA message (mRNA) for PGC-1α was measured by quantitative polymerase chain reactions.

[2] = test system: PPARγ; conditions: dosed to full effect for insulin sensitizing actions in vivo; cited from earlier work
[3] = test system: astrocyte marker GFAP; experiment: GFAP astrocyte marker staining of sections from treated mice; type: in vivo; conditions: sections from control and treated mice
Method: (§1) 5XFAD mice harbor 5 familial mutations (3 in the amyloid precursor protein; 2 in presenilin 1) and develop robust plaque pathology as early as 6 weeks. These mice were treated beginning at 2 months of age for a period of 4 weeks with control chow or chow containing Compound X to deliver 390 mg/kg for 4 weeks.

[4] = test system: 5XFAD mice; experiment: Thioflavin S stained plaques in the hippocampus of 5XFAD mice; type: in vivo
Method: as §1
Referring to FIG. 7, thioflavin S stained plaques were counted in the hippocampus of the 5XFAD mice. […] Note that the plaques having less than 100 micron size were excluded from the graph, and those amounted to about 70% of all the plaques in both Control and Compound X treated groups.

[5] = chow delivering 390 mg/kg for 4 weeks, hippocampus, vs control group

COc1cccc(C(=O)COc2ccc(CC3SC(=O)NC3=O)cc2)c1 (centres unmarked) [Compound Z, 5-(4-(2-(3-methoxyphenyl)-2-oxoethoxy)benzyl)-1,3-thiazolidine-2,4-dione]
PGC-1α message (mRNA) in the presence of norepinephrine [1]: increase

CCc1ccc([C@@H](O)COc2ccc(CC3SC(=O)NC3=O)cc2)nc1 (some centres unmarked) [Compound Y]
PGC-1α message (mRNA) in the presence of norepinephrine [1]: increase

CN(CCOc1ccc(CC2SC(=O)NC2=O)cc1)c1ccccn1 (centres unmarked) [rosiglitazone]
a P2 expression in the liver [2]: increase

CCc1ccc(C(=O)COc2ccc(CC3SC(=O)NC3=O)cc2)nc1 (centres unmarked) [Mitoglitazone]
average number of GFAP positively stained cells per section, P value control vs treated [3]: 0.012

CCc1ccc(C(=O)COc2ccc(CC3SC(=O)NC3=O)cc2)nc1 (centres unmarked) [Compound X, 5-(4-(2-(5-ethylpyridin-2-yl)-2-oxoethoxy)benzyl)-1,3-thiazolidine-2,4-dione]
PGC-1α message (mRNA) in the presence of norepinephrine [1]: increase | number of plaques [4, 5]: less than the control group | size of plaques [4, 5]: less than the control group | plaques having less than 100 micron size, share of all the plaques ([4]; same in Control and treated groups, excluded from the graph): about 70%
